Assay results from ChEMBL document CHEMBL1201862, “PubChem BioAssay data set” (2004).
Calls of active or inactive are those of the source.

Legend:
[1] = Luminescence Cell-Based Dose Response HTS to Identify Activators of Luciferase Translation or Activity in H4 […] Cells. [Related pubchem assays: 1829 (Project Summary), 1814 (Primary HTS)]; format: functional
H4 = assay: Luminescence Cell-Based Dose Response HTS to Identify Activators of 5'UTR Stem-Loop Driven Prion Protein mRNA Translation in H4 Neuroglioblastoma Cells. [Related pubchem assays: 1829 (Project Summary), 1814 (Primary HTS)]; format: functional; settings: Homo sapiens
[2] = Luminescence Cell-Based Dose Confirmation HTS to Identify Activators of 5'UTR Stem-Loop Driven Alpha-Synuclein mRNA Translation in H4 Neuroglioblastoma Cells. [Related pubchem assays: 1829 (Project Summary), 1814 (Primary HTS)]; format: functional
P388 = assay: cells; format: functional; settings: Mus musculus
SN12K1 = assay: cells; format: functional; settings: Homo sapiens
P388/ADR = assay: cells; format: functional; settings: Mus musculus
[3] = blockers of HIV-1 envelope-mediated cell-cell fusion – cherry-pick, dose response (AID 652057); format: functional, cell-based
[4] = HIV-1 AD8 envelope cell-cell fusion blockers – cherry-pick, dose response (AID 652062); format: functional, cell-based;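 note: luciferase signal from cell-cell fusion driven by HIV-1 clade B AD8 Env; potency is for inhibitors of fusion seen as a drop in luminescence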
[5] = target: T1, Short transient receptor potential channel 4 (Mus musculus, UniProt Q9QUQ5); assay: block of DAMGO-driven TRPC4 calcium entry – cell-based, HEK293 TRPC4/mu-opioid, Fluo-4 calcium, dose response (AID 434942); format: functional;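 note: potency of inhibitors blocking the TRPC4 calcium response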
T1 sequence (Q9QUQ5 whole entry): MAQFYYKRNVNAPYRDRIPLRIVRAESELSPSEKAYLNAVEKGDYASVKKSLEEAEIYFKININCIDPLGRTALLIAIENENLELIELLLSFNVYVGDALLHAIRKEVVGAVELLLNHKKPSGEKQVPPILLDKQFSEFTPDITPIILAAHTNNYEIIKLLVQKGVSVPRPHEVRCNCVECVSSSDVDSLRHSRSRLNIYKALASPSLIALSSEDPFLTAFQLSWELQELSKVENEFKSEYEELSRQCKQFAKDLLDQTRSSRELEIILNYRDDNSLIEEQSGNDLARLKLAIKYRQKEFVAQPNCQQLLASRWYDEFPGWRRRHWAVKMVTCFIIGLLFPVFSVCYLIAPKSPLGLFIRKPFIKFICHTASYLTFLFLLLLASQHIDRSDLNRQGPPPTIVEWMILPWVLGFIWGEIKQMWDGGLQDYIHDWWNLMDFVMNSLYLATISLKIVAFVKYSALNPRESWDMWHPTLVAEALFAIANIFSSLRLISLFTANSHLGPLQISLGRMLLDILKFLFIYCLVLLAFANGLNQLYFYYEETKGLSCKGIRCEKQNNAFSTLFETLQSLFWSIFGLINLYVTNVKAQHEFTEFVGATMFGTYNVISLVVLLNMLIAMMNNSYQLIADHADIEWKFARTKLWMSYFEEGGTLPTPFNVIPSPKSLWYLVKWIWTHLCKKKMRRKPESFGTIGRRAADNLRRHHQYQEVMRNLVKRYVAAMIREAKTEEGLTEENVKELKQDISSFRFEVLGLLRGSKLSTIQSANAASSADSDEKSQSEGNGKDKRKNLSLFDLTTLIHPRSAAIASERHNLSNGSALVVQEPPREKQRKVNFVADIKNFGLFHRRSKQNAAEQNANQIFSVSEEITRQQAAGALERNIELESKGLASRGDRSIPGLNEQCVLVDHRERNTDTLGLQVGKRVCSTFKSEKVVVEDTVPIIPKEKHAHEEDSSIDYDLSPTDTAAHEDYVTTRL

HeLa = assay: ATP-based viability loss in HeLa cells – cell-based, CellTiter-Glo luminescence, cherry-pick samples, cytotoxicity control for MITF activator project, dose response (AID 540259); format: functional; settings: Homo sapiens
[6] = target: T2, Microphthalmia-associated transcription factor (Homo sapiens, UniProt O75030); assay: reducers of TRPM1 reporter luminescence, concentration series – cell-based, SK-MEL-5, cherry-picked, set 3, MITF inhibitor project, dose response (AID 493073); format: functional;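 note: SK-MEL-5 melanoma cells with luciferase driven by the MITF target TRPM1 promoter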
T2 sequence (O75030 whole entry): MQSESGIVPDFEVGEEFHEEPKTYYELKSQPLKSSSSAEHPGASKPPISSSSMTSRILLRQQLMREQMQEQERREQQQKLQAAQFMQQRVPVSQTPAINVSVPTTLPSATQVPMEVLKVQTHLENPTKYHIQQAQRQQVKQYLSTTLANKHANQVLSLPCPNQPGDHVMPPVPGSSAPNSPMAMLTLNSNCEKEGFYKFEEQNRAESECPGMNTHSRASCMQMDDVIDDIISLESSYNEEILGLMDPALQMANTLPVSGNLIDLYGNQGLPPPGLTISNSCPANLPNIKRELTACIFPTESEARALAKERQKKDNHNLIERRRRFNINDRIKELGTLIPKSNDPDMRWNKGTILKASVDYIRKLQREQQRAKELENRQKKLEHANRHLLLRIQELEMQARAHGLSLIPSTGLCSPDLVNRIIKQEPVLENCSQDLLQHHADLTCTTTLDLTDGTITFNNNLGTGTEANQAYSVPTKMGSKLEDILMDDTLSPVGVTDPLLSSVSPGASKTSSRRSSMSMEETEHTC

[7] = target: T1, Short transient receptor potential channel 4; assay: calcium entry via TRPC4 opening agents – cell-based, HEK293 TRPC4/mu-opioid, Fluo-4 calcium, dose response (AID 434937); format: functional
[8] = Trypanosoma cruzi growth suppression in host cells – NIH3T3 host cells, beta-gal luminescence, confirmation (AID 2044); format: functional, cell-based;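 note: intracellular parasites grown in NIH/3T3 mouse fibroblasts as host cells; luminescent beta-galactosidase reporter signal from transgenic T. cruzi replicating inside host cells; inhibitors lower the luminescence signal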
[9] = NIH3T3 cell viability loss – ATP luminescence, mouse fibroblasts, counter-screen, dose response (AID 2010); format: functional, cell-based;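 note: cells exposed to compound for about 90 hours before reading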
[10] = target: T3, Corticotropin-releasing factor receptor 2/Corticotropin-releasing factor-binding protein (Homo sapiens, UniProt P24387+Q13324); assay: activators of CRF receptor 2 with binding protein – uHTS hits, confirmation (AID 602473); format: functional; settings: read-out: EC50_Mean
T3 sequence (Q13324 whole entry): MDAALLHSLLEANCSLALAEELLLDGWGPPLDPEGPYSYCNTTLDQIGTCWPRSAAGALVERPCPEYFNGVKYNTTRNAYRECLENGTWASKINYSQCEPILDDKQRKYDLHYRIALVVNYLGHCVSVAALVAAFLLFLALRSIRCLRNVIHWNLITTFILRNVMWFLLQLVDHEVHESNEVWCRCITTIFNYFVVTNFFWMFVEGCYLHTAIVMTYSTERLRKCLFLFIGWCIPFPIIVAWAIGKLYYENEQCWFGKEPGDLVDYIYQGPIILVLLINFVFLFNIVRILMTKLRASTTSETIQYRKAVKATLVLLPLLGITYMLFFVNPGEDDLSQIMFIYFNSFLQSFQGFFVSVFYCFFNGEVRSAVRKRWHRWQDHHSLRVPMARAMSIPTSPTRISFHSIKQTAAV
T3 sequence (P24387 whole entry): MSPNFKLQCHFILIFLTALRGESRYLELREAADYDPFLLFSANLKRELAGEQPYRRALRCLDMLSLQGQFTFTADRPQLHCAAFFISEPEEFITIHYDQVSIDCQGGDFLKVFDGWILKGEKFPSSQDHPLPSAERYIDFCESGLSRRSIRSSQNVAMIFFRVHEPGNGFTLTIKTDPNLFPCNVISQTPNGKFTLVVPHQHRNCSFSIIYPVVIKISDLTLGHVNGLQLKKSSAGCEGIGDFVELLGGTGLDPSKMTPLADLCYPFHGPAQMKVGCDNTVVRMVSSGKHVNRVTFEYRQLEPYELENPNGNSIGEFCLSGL

Paired box protein Pax-8 = Paired box protein Pax-8 (Homo sapiens, UniProt Q06710); assay: PAX8 transcriptional activity inhibition in RMG-I – RMG-I cells, luciferase, cherry-pick, dose response (AID 687027); format: functional, cell-based;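 note: luciferase reporter driven by Pax8 target thyroperoxidase promoter measured by SteadyGlo luminescence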
Chain of Paired box protein Pax-8 (Q06710 whole entry): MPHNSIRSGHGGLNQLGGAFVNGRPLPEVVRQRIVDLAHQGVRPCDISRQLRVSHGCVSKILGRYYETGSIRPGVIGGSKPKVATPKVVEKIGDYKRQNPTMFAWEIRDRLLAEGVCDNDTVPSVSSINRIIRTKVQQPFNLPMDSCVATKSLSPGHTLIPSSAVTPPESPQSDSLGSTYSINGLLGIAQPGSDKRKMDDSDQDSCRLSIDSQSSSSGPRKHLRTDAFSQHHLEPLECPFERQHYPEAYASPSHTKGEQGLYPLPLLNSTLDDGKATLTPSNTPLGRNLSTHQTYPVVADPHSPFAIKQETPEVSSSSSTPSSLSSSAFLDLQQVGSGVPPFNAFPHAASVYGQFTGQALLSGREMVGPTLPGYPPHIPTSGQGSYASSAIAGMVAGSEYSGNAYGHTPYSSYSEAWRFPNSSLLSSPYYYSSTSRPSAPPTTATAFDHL

## O=C(NC1=NCCS1)C12CC3CC(C1)CC(C(=O)NC1=NCCS1)(C3)C2
[1]
  EC50: 13.6 µM (inconclusive)
H4
  EC50: 9.63 µM (active)
[2]
  EC50: > 120 µM (not active)

## O=C(O)c1ccc(Nc2c3ccccc3nc3ccccc23)cc1
P388
  GI50: 3.92 µM (inactive)
SN12K1
  GI50: 60.5 µM (inactive)
P388/ADR
  GI50: 22.4 µM (inactive)

## c1ccc2c(c1)NCc1cc3ccccc3nc1O2
P388
  GI50: > 100 µM (inactive)
SN12K1
  GI50: > 100 µM (inactive)
P388/ADR
  GI50: 74.1 µM (inactive)

## Cc1ccc(S(=O)(=O)N(C)C[C@@H]2Oc3ccc(NC(=O)Cc4cn(C)c5ccccc45)cc3CC(=O)N([C@H](C)CO)C[C@@H]2C)cc1
[3]
  AC50: 1.09 µM (active)
[4]
  AC50: 14.5 µM (active)

## O=P1(N(CCCl)CCCl)NCCCO1 (stereo not given) [CYCLOPHOSPHAMIDE ANHYDROUS]
P388
  GI50: 229 µM (inactive)
SN12K1
  GI50: > 245 µM (inactive)
P388/ADR
  GI50: 196 µM (inactive)

## COCCN(C(=O)COC(=O)/C=C/c1ccccc1Cl)c1c(N)n(Cc2ccccc2)c(=O)[nH]c1=O
[1]
  EC50: 9.52 µM (active)
H4
  EC50: > 120 µM (not active)
[2]
  EC50: 26.2 µM (active)

## CC(C)=CCCC(C)CN1CCC(n2nccc2NC(=O)C2CCCC2)CC1 (stereo not given)
[5]
  EC50: 5.31 µM (active)

## Oc1nc2cc3c(cc2cc1CN(Cc1nnnn1C1CCCC1)C1CCCC1)OCCO3
[1]
  EC50: > 120 µM (not active)
H4
  EC50: 59.4 µM (active)
[2]
  EC50: > 120 µM (not active)

## Cc1cccc(-n2ncc3c(N4CC(C)CC(C)C4)ncnc32)c1 (stereo not given)
HeLa
  AC50: 163 µM (active)

## O=C(c1ccc(F)cc1)c1ccc(N2CCCCC2)cc1
HeLa
  AC50: 57.7 µM (active)

## COC1C(O)C(n2ncc3c(SC)nc(SC)nc32)OC1C(O)CO (stereo not given)
P388
  GI50: 98.2 µM (inactive)
SN12K1
  GI50: > 37.2 µM (inactive)
P388/ADR
  GI50: > 100 µM (inactive)

## COc1ccc(C)cc1Nc1nc(N)c2cc(OC)c(OC)cc2n1
[6]
  AC50: 14.2 µM (active)

## CC(Oc1ccc(Cl)cc1Cl)c1nc(-c2ccccn2)no1 (stereo not given)
[5]
  EC50: 1.88 µM (active)

## COc1ccc(C(CNC(=O)c2cccc(NS(=O)(=O)c3ccc(Br)cc3)c2)N(C)C)cc1 (stereo not given)
[7]
  EC50: 5.31 µM (active)

## CCCc1ccc(-c2cc(C(=O)NCCc3ccc(S(N)(=O)=O)cc3)c3ccccc3n2)cc1
HeLa
  AC50: 37.5 µM (active)

## Oc1c(Br)cc(Br)cc1/C=N/c1ccc2[nH]ncc2c1
[5]
  EC50: 4.22 µM (active)

## Nc1c(-c2ccc(Cl)cc2)cnn1-c1ccccc1
HeLa
  AC50: 64.2 µM (active)

## Cc1cc2cc(C#N)c(NCCN=C(S)NCCCN3CCOCC3)nc2cc1C
[5]
  EC50: 5.31 µM (active)

## NC(=O)c1nsc(C(=O)N(Cc2ccc(F)cc2)C(C(=O)NCC2CCCO2)c2ccc(O)cc2)c1N (stereo not given)
[5]
  EC50: 2.37 µM (active)

## CCOC(=O)c1c[nH]c2cc3c(cc2c1=O)CCS3(=O)=O.CCOC(=O)c1c[nH]c2ccc3c(c2c1=O)S(=O)(=O)CC3
P388
  GI50: > 100 µM (inactive)
SN12K1
  GI50: > 100 µM (inactive)
P388/ADR
  GI50: > 100 µM (inactive)

## COc1cccc(CNC(=O)CN2C(=O)CSc3ccc(S(=O)(=O)N4CCCCC4)cc32)c1
[1]
  EC50: > 120 µM (not active)
H4
  EC50: > 120 µM (not active)
[2]
  EC50: > 120 µM (not active)

## CCCCNCc1cc(Cl)c(OCCC)c(OCC)c1
[5]
  EC50: 2.37 µM (active)

## COc1cccc2cc(CC(=O)c3ccc(C)cc3C)c(=O)oc12
[1]
  EC50: 43.4 µM (active)
H4
  EC50: 11 µM (active)
[2]
  EC50: 43.3 µM (active)
HeLa
  AC50: 83.9 µM (active)

## CCOc1ccc2ncc(C(=O)c3ccc(OC)cc3)c(N3CCN(CC)CC3)c2c1
[7]
  EC50: 5.96 µM (active)

## Cc1ccc(NC(=O)CN2CCCC2c2cccn2C)c(Br)c1 (stereo not given)
HeLa
  AC50: 52.2 µM (active)

## CSCCC(NS(=O)(=O)c1ccc2c(c1)c(=O)n(C)c(=O)n2C)C(=O)NC1CCN(Cc2ccccc2)CC1 (stereo not given)
[7]
  EC50: 3.76 µM (active)

## COc1cccc(/C=C/C(=O)OC(C)C(=O)Nc2c(C)n(C)n(-c3ccccc3)c2=O)c1 (stereo not given)
[1]
  EC50: 49.1 µM (active)
H4
  EC50: > 120 µM (not active)
[2]
  EC50: 10.5 µM (active)

## CC(NCc1cc(Br)ccc1OCC(=O)NCc1ccccc1)c1ccccc1 (stereo not given)
[8]
  EC50: 2.53 µM (active)
[7]
  EC50: 7.5 µM (active)
[5]
  EC50: 1.06 µM (active)
[9]
  EC50: > 60 µM (not active)

## CCn1c(COc2ccccc2C)nc2ccccc21
HeLa
  AC50: 81 µM (active)
[10]
  EC50: 4.28 µM (active)

## OCCNc1nc(NCc2ccccc2)c2ccccc2n1
[5]
  EC50: 3.35 µM (active)

## CNCCOc1ccc(Cl)c(Cl)c1
[7]
  EC50: 0.944 µM (active)

## CCCCN(CCCC)C(=N)Nc1nc(C)cc(C)n1
[5]
  EC50: 3.76 µM (active)

## O=C(NC(=S)NCc1nc2ccccc2[nH]1)c1ccccc1F
[1]
  EC50: 25.6 µM (active)
H4
  EC50: 9.16 µM (active)
[2]
  EC50: 70.7 µM (active)

## COC(=O)[C@]12CCCCC=C1N(Cc1cccc3ccccc13)C(=O)[C@H](CC(=O)N1CCN(C(=O)c3ccco3)CC1)C2
Paired box protein Pax-8
  AC50: 1.59 µM (active)

## Cc1ccc(C#CS(=O)(=O)C(F)(F)F)cc1
P388
  GI50: 90.6 µM (inactive)
SN12K1
  GI50: > 100 µM (inactive)
P388/ADR
  GI50: > 100 µM (inactive)

## O=C1NC(=O)C(CCO)(c2ccccc2)C(=O)N1
P388
  GI50: > 100 µM (inactive)
SN12K1
  GI50: > 100 µM (inactive)

## Fc1ccc(-n2cc(CNCCc3ccncc3)c(-c3ccccc3Cl)n2)cc1
[5]
  EC50: 3.35 µM (active)
